For orientation: IC50 means the midpoint of a concentration-inhibition curve. Usually Ki stands for the equilibrium dissociation constant of an inhibitor or competing ligand from its target.

Experimental findings from publication PMC4641580 (ACS Medicinal Chemistry Letters, 2015) are described below.

The target of one assay is T1, human PTP-PEST (Homo sapiens, UniProt Q05209).
T1 sequence (Q05209 1-780): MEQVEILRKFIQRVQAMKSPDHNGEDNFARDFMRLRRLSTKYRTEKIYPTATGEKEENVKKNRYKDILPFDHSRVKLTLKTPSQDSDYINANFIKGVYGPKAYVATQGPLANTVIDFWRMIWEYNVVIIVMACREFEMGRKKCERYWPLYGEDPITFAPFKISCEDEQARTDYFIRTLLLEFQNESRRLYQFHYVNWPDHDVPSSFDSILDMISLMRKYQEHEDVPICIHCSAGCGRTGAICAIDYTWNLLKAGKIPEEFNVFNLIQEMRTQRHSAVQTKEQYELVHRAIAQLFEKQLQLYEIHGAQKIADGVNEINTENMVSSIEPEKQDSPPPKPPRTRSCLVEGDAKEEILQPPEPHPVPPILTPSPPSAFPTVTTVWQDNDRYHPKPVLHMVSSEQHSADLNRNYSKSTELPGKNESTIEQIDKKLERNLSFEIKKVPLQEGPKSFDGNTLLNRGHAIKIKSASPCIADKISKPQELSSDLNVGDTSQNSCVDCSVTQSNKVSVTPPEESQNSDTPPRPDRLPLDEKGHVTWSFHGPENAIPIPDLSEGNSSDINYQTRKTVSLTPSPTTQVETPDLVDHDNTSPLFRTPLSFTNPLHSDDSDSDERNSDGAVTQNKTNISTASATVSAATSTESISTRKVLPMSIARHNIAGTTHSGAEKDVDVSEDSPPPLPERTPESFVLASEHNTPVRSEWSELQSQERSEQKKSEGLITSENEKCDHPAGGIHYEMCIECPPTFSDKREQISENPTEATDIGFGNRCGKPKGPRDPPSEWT
The class given is biochemical.

In assay [1] the test system is Mycobacterium tuberculosis PtpB. It is filed as biochemical. The settings on record: read-out: IC50 PtpB.
The target in another assay is T2, human PTP1B (Homo sapiens, UniProt P18031).
T2 sequence (P18031 1-435): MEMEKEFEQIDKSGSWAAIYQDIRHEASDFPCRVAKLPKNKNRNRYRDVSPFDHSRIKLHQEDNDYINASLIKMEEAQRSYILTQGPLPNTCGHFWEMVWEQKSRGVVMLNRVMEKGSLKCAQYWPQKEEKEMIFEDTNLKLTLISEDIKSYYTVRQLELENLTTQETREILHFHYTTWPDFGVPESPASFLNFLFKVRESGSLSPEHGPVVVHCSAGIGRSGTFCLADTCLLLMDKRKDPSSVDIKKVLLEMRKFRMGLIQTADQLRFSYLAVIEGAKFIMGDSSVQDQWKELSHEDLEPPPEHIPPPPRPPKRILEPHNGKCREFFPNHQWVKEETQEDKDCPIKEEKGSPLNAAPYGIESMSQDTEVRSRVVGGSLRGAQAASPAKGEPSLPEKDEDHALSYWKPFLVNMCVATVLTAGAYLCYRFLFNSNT
The class given is biochemical.

For the next assay, the target named is T3, human LYP (Homo sapiens, UniProt Q9Y2R2).
T3 sequence (Q9Y2R2 1-807): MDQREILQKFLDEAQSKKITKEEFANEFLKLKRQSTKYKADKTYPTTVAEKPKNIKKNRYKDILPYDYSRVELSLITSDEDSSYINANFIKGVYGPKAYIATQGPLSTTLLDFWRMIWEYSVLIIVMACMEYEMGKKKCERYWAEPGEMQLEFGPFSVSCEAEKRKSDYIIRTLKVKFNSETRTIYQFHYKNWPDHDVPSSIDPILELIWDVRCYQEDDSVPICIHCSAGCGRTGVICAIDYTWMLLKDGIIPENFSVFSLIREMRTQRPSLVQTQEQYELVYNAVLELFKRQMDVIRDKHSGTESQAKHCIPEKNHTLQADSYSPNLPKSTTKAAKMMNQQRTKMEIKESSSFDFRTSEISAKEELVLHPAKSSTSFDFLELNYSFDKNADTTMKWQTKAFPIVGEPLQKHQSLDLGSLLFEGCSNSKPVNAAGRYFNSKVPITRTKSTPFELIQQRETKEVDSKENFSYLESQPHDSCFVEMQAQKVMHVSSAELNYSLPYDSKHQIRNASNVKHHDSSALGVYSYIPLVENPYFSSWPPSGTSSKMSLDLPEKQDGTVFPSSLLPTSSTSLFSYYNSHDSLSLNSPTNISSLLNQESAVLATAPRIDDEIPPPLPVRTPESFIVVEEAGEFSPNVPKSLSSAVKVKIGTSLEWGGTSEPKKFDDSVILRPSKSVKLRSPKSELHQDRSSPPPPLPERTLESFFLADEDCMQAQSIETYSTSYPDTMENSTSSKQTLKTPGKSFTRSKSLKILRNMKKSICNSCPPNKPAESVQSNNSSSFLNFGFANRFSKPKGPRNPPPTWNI
The class given is biochemical.

In the next assay the target is YopH (Yersinia enterocolitica, UniProt P15273). The class given is biochemical. The following applies: read-out: Ki against YopH.
For assay [2], the target named is Mycobacterium tuberculosis PtpA (Mycobacterium tuberculosis, UniProt P9WIA1).
Sequence of Mycobacterium tuberculosis PtpA (P9WIA1 whole entry): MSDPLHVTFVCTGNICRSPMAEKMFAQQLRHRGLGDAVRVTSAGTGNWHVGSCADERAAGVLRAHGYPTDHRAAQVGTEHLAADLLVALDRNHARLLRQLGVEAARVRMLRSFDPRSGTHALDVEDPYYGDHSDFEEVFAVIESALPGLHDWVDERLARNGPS

Sequence of YopH (P15273 whole entry, looked up): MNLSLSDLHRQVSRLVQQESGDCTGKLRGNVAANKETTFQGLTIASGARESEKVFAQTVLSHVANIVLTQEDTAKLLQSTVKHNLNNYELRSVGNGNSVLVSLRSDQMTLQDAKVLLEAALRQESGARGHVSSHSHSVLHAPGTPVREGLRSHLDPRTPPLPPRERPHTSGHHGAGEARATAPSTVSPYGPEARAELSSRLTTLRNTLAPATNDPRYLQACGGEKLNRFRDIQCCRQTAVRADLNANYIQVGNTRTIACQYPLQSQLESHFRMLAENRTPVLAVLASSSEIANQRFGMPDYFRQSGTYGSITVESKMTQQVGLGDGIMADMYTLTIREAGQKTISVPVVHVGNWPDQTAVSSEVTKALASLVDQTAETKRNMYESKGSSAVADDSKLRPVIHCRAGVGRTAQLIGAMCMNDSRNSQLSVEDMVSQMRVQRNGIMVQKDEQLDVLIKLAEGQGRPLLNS

Regarding `[O]=[V]([S]c1cccc[n+]1[O-])[S]c1cccc[n+]1[O-]` [Compound 3, Bis(pyridine-2-thiol N-oxide) oxovanadium(IV)], on human PTP-PEST, the “SI (IC50PTP/IC50YopH) PTP–PEST” value was determined as 142.4. Also, the IC50 at human PTP-PEST (read-out: IC50 PTP–PEST) was determined as 41.3 ± 3.19 µM; in assay [1] it was 52.6 ± 1.56 µM; at human PTP1B (read-out: IC50 PTP1B), 0.78 ± 0.02 µM; at human LYP (read-out: IC50 LYP), 28.3 ± 1.71 µM; in assay [2] (read-out: IC50 PtpA), 9.12 ± 0.26 µM. Besides, the “SI (IC50PTP/IC50YopH) PTP1B” value at human PTP1B is on record as 2.7. In addition, on human LYP, the “SI (IC50PTP/IC50YopH) LYP” value was 97.6. Besides, the Ki at YopH was determined as 0.19 µM. The “SI (IC50PTP/IC50YopH) PtpA” value in assay [2] is reported as 31.5.
